Laboratory results: BigSolDB 2.1

Details: in n-octanol

solubility (mole fraction) (293.15 K)	solubility (mole fraction) (298.15 K)	solubility (mole fraction) (303.15 K)	solubility (mole fraction) (308.15 K)	solubility (mole fraction) (313.15 K)	Compound
0.000299	0.000368	0.000444	0.000531	0.000638	Cc1ccc(-n2c(=S)sc3c(=O)n(CC(=O)NCC(O)(Cn4cncn4)c4ccc(F)cc4F)cnc32)cc1 (stereo not given)
0.000548	0.000617	0.000699	0.000773	0.000861	O=C(Cn1cnc2c(sc(=S)n2-c2ccc(Cl)cc2)c1=O)NCC(O)(Cn1cncn1)c1ccc(F)cc1F (stereo not given)
0.00182	0.00212	0.00253	0.00297	0.00348	COc1ccccc1-n1c(=S)sc2c(=O)n(CC(=O)NCC(O)(Cn3cncn3)c3ccc(F)cc3F)cnc21 (stereo not given)
0.000335	0.000382	0.000439	0.000495	0.000563	O=C(Cn1cnc2c(sc(=S)n2-c2ccc(F)cc2)c1=O)NCC(O)(Cn1cncn1)c1ccc(F)cc1F (stereo not given)
